Experimental findings from patent publication US9650395B2, “Antibacterial compounds and methods for use” (PTC Therapeutics, Inc., priority 2011, dated 2017) are described below.

Assay [1] deals with super sensitive Gram-negative Escherichia coli (E. coli) BAS849. The assay can be described thus: Antibacterial activity, microbroth dilution MIC, E. coli BAS849. Type of assay: cell-based. To be noted: for MIC: Escherichia coli, read-out: MIC, BAS849.
Assay [2] concerns control Gram-negative E. coli 25922 strain. Kind of assay: Antibacterial activity, microbroth dilution MIC, E. coli 25922. The class given is cell-based, Escherichia coli. To be noted: E. coli 25922, microbroth dilution; for MIC: Escherichia coli, read-out: MIC, 25922. (Dilution methods test growth across graded concentrations, often in twofold steps.)
The subject of assay [3] is Gram-positive Staphylococcus aureus (S. aureus) 29213. Kind of assay: Antibacterial activity, microbroth dilution MIC, S. aureus 29213. Type of assay: cell-based. The following applies: S. aureus 29213, microbroth dilution; for MIC: Staphylococcus aureus, read-out: MIC, 29213.
The subject of assay [4] is quinolone resistant E. coli LZ3111. Kind of assay: Antibacterial activity, MIC, quinolone resistant E. coli LZ3111. The class given is cell-based, Escherichia coli. The following applies: for MIC: Escherichia coli, read-out: MIC, LZ3111. From the text:
(§1) The antibacterial activity from a microbroth dilution method may be presented as the minimum inhibitory concentration (MIC in […]). The MIC value is the lowest concentration of a drug which prevents macroscopically visible bacterial growth under test conditions.
Mutations in these regions are known to confer a high level resistance to the quinolone class of antibiotics.

In assay [5] the test system is E. coli ELZ4000 (MDR clinical isolate). The assay can be described thus: Antibacterial activity, MIC, MDR E. coli ELZ4000. The class given is cell-based, Escherichia coli. To be noted: E. coli ELZ4000, MDR clinical isolate; for MIC: Escherichia coli, read-out: MIC ELZ4000.
The subject of assay [6] is E. coli ELZ4251 (MDR clinical isolate). The assay can be described thus: Antibacterial activity, MIC, MDR E. coli ELZ4251. To be noted: E. coli ELZ4251, MDR clinical isolate; for MIC: Escherichia coli, read-out: MIC ELZ4251. The class given is cell-based, Escherichia coli.
Assay [7] has as its system Acinetobacter baumannii (A. baumannii) BAA747. The assay can be described thus: Antibacterial activity, MIC, A. baumannii BAA747. Type of assay: cell-based. The following applies: A. baumannii BAA747; for MIC: Acinetobacter baumannii, read-out: MIC BAA747.
The test system of assay [8] is Klebsiella pneumoniae (K. pneumoniae) 35657. The assay can be described thus: Antibacterial activity, MIC, K. pneumoniae 35657. The class given is cell-based. The following applies: for MIC: Klebsiella pneumoniae.
Assay [9] deals with resistant A. baumannii MXX2240 (MDR clinical isolate). Kind of assay: Antibacterial activity, MIC, resistant A. baumannii MXX2240. The class given is cell-based, Acinetobacter baumannii. To be noted: resistant A. baumannii MMX2240, MDR clinical isolate; for MIC: Acinetobacter baumannii, read-out: MIC MMX2240.
Assay [10] relates to resistant K. pneumoniae MXX1232 (MDR clinical isolate). The assay can be described thus: Antibacterial activity, MIC, resistant K. pneumoniae MXX1232. The class given is cell-based, Klebsiella pneumoniae. The following applies: resistant K. pneumoniae MMX1232, MDR clinical isolate; for MIC: Klebsiella pneumoniae, read-out: MIC MMX1232.
Assay [11] relates to Pseudomonas aeruginosa (P. aeruginosa) 27853. The assay can be described thus: Antibacterial activity, MIC, P. aeruginosa 27853. Type of assay: cell-based. To be noted: P. aeruginosa 27853; for MIC: Pseudomonas aeruginosa, read-out: MIC 27853.
Source text: as §1
Antibacterial activity of test compounds against the Gram-negative bacterium Pseudomonas aeruginosa (P. aeruginosa) 27853 is shown in Table 5.

Assay [12] relates to Haemophilus influenzae (H. influenzae) 49247. The assay can be described thus: Antibacterial activity, MIC, H. influenzae 49247. Type of assay: cell-based. The following applies: H. influenzae 49247; for MIC: Haemophilus influenzae, read-out: MIC 49247. The gist of the method: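 Antibacterial activity against the Gram-negative organism Haemophilus influenzae strain 49247 was measured by microbroth dilution. The minimum inhibitory concentration (MIC) was taken as the lowest drug concentration that stopped bacterial growth from being visible to the naked eye under the test conditions.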

Assay [13] concerns Moraxella catarrhalis (M. catarrhalis) 25238. Kind of assay: Antibacterial activity, MIC, M. catarrhalis 25238. The following applies: M. catarrhalis 25238; for MIC: Moraxella catarrhalis, read-out: MIC 25238. Type of assay: cell-based.
The test system of assay [14] is Neisseria meningitidis (N. meningitidis) 13090. Kind of assay: Antibacterial activity, MIC, N. meningitidis 13090. The class given is cell-based. To be noted: N. meningitidis 13090; for MIC: Neisseria meningitidis, read-out: MIC 13090.
[15] abbreviates: E. coli BAS849, microbroth dilution.

The structures appear in SMILES notation. Like-named read-outs stand apart in the source and are kept apart here.

Regarding `CCc1c(-c2ccc(N3C[C@H]4CC[C@@H](NC)[C@H]4C3)cc2)[nH]c(=O)c(C(=O)O)c1O.Cl` [Cpd 256, 5-ethyl-4-hydroxy-6-{4-[(3aR,4R,6aS)-4-(methylamino)hexahydrocyclopenta[c]pyrrol-2(1H)-yl]phenyl}-2-oxo-1,2-dihydropyridine-3-carboxylic acid hydrochloride], the MIC was less than 1 µg/mL in [1] (setting [15]); 1 to 3.5 µg/mL in [2]; 3.5 to 12.5 µg/mL in assay [3]; 1 to 3.5 µg/mL in [4]; 12.5 to 150 µg/mL in assay [5]; 3.5 to 12.5 µg/mL in [6]. Besides, the MIC lay within 12.5 to 150 µg/mL in [7]; 1 to 3.5 µg/mL in assay [8]; 12.5 to 150 µg/mL in [9]; 12.5 to 150 µg/mL in [10]; 12.5 to 150 µg/mL in assay [11]; 3.5 to 12.5 µg/mL in [12]. For the same compound, the MIC is 1 to 3.5 µg/mL in [13] and less than 1 µg/mL in assay [14].
In the case of `CCc1c(-c2ccc(N3CCC(N4CCCC4)C3)cc2)[nH]c(=O)c(C(=O)O)c1O.Cl` (centres unmarked) [Cpd 257, 6-[4-(1,3′-bipyrrolidin-1′-yl)phenyl]-5-ethyl-4-hydroxy-2-oxo-1,2-dihydropyridine-3-carboxylic acid hydrochloride], the MIC is less than 1 µg/mL in assay [1] (setting [15]); less than 1 µg/mL in [2]; 12.5 to 150 µg/mL in [3]; 3.5 to 12.5 µg/mL in [4]; 3.5 to 12.5 µg/mL in assay [5]; 1 to 3.5 µg/mL in assay [6]. Besides, the MIC was in the range of 1 to 3.5 µg/mL in [7]; 1 to 3.5 µg/mL in assay [8]; 12.5 to 150 µg/mL in [9]; 12.5 to 150 µg/mL in [10]; 12.5 to 150 µg/mL in [11]; 1 to 3.5 µg/mL in assay [12]. The MIC in assay [13] is 1 to 3.5 µg/mL; in assay [14] it was less than 1 µg/mL.
As for `CCc1c(-c2ccc(N3C[C@H]4CCC[C@H](N)[C@H]4C3)cc2)[nH]c(=O)c(C(=O)O)c1O.Cl` [Cpd 258, 6-{4-[(3aR,4S,7aS)-4-aminooctahydro-2H-isoindol-2-yl]phenyl}-5-ethyl-4-hydroxy-2-oxo-1,2-dihydropyridine-3-carboxylic acid hydrochloride], the MIC was less than 1 µg/mL in assay [1] (setting [15]); 1 to 3.5 µg/mL in assay [2]; 3.5 to 12.5 µg/mL in assay [3]; less than 1 µg/mL in assay [4]; 12.5 to 150 µg/mL in [5]; 3.5 to 12.5 µg/mL in assay [6]. The MIC is 12.5 to 150 µg/mL in [7]; 1 to 3.5 µg/mL in assay [8]; 3.5 to 12.5 µg/mL in assay [9]; 12.5 to 150 µg/mL in assay [10]; 12.5 to 150 µg/mL in assay [11]; 3.5 to 12.5 µg/mL in [12]. For the same compound, the MIC in assay [13] is 1 to 3.5 µg/mL; in [14] it was less than 1 µg/mL.
For the compound `Cc1c(-c2ccc(N3C[C@@H]4[C@@H](N)[C@@H]4C3)cc2)[nH]c(=O)c(C(=O)O)c1O.Cl` [Cpd 259, 6-{4-[(1R,5S,6s)-6-amino-3-azabicyclo[3.1.0]hex-3-yl]phenyl}-4-hydroxy-5-methyl-2-oxo-1,2-dihydropyridine-3-carboxylic acid hydrochloride], the “MIC, BAS849” value in [1] (setting [15]) is given as “**** (an MIC value of ≦1.0 μg/mL is indicated by four stars (****))”. The “MIC, 25922” value in assay [2] was “*** (an MIC value between >1.0 μg/mL and ≦3.5 μg/mL is indicated by three stars (***))”. In assay [3], the “MIC, 29213” value was “* (an MIC value between >12.5 μg/mL and ≦150 μg/mL is indicated by a single star (*))”. Besides, the “MIC, LZ3111” value in [4] (quinolone resistant E. coli LZ3111) was “*** (an MIC value between >1.0 μg/mL and ≦3.5 μg/mL is indicated by three stars (***))”. Besides, in [5], the “MIC ELZ4000” value was “** (an MIC value between >3.5 μg/mL and ≦12.5 μg/mL is indicated by two stars (**))”. Further, in assay [6], the “MIC ELZ4251” value is “** (an MIC value between >3.5 μg/mL and ≦12.5 μg/mL is indicated by two stars (**))”. In addition, in [7], the “MIC BAA747” value is “** (an MIC value between >3.5 μg/mL and ≦12.5 μg/mL is indicated by two stars (**))”. For the same compound, the “MIC 35657” value in [8] was “*** (an MIC value between >1.0 μg/mL and ≦3.5 μg/mL is indicated by three stars (***))”. The “MIC MMX2240” value in [9] was “* (an MIC value between >12.5 μg/mL and ≦150 μg/mL is indicated by a single star (*))”. In assay [10], the “MIC MMX1232” value was “* (an MIC value between >12.5 μg/mL and ≦150 μg/mL is indicated by a single star (*))”. Further, the “MIC 27853” value in assay [11] is “* (an MIC value between >12.5 μg/mL and ≦150 μg/mL is indicated by a single star (*))”. For the same compound, in assay [12], the “MIC 49247” value was “*** (an MIC value between >1.0 μg/mL and ≦3.5 μg/mL is indicated by three stars (***))”. Moreover, the “MIC 25238” value in [13] is “** (an MIC value between >3.5 μg/mL and ≦12.5 μg/mL is indicated by two stars (**))”. In [14], the “MIC 13090” value is “**** (an MIC value of ≦1.0 μg/mL is indicated by four stars (****))”.
Regarding `CCc1c(-c2ccc(N3C[C@H]4CCC[C@@H](N(C)C)[C@H]4C3)cc2)[nH]c(=O)c(C(=O)O)c1O.Cl` [Cpd 261, 6-{4-[(3aR,4R,7aS)-4-(dimethylamino)octahydro-2H-isoindol-2-yl]phenyl}-5-ethyl-4-hydroxy-2-oxo-1,2-dihydropyridine-3-carboxylic acid hydrochloride], the MIC in assay [1] (setting [15]) was less than 1 µg/mL; in [2], 3.5 to 12.5 µg/mL; in [3], 3.5 to 12.5 µg/mL; in [4], 1 to 3.5 µg/mL; in assay [5], 12.5 to 150 µg/mL; in assay [6], 3.5 to 12.5 µg/mL. Also, the MIC in assay [7], in assay [8], in assay [9], in [10], in assay [11] and in assay [12] was 12.5 to 150 µg/mL each time. Besides, the MIC is 3.5 to 12.5 µg/mL in [13] and less than 1 µg/mL in [14].
For the compound `CCc1c(-c2ccc(N3C[C@H]4CCC[C@@H](N)[C@H]4C3)cc2)[nH]c(=O)c(C(=O)O)c1O.O=C(O)C(F)(F)F` [Cpd 262, 6-{4-[(3aR,4R,7aS)-4-aminooctahydro-2H-isoindol-2-yl]phenyl}-5-ethyl-4-hydroxy-2-oxo-1,2-dihydropyridine-3-carboxylic acid trifluoroacetate], the MIC is less than 1 µg/mL in assay [1]; 1 to 3.5 µg/mL in assay [2]; 3.5 to 12.5 µg/mL in assay [3]; less than 1 µg/mL in assay [4]; 1 to 3.5 µg/mL in assay [5]; 1 to 3.5 µg/mL in assay [6]. In addition, the MIC in [7] fell in the range of 3.5 to 12.5 µg/mL; in assay [8], 1 to 3.5 µg/mL; in assay [9], 1 to 3.5 µg/mL; in [10], 12.5 to 150 µg/mL; in assay [11] it was 12.5 to 150 µg/mL; in [12], 3.5 to 12.5 µg/mL. Besides, the MIC in assay [13] is 3.5 to 12.5 µg/mL; in assay [14], 1 to 3.5 µg/mL.
With `CCc1c(-c2ccc(N3C[C@H]4CC[C@@H](N(C)C)[C@H]4C3)cc2)[nH]c(=O)c(C(=O)O)c1O.Cl` [Cpd 263, 6-{4-[(3aR,4R,6aS)-4-(dimethylamino)hexahydrocyclopenta[c]pyrrol-2(1H)-yl]phenyl}-5-ethyl-4-hydroxy-2-oxo-1,2-dihydropyridine-3-carboxylic acid hydrochloride], the MIC was less than 1 µg/mL in assay [1] (setting [15]); 1 to 3.5 µg/mL in [2]; 12.5 to 150 µg/mL in [3]; 3.5 to 12.5 µg/mL in assay [4]; 12.5 to 150 µg/mL in assay [5]; 12.5 to 150 µg/mL in [6]. The MIC fell in the range of 3.5 to 12.5 µg/mL in assay [7]; 3.5 to 12.5 µg/mL in [8]; 12.5 to 150 µg/mL in assay [9]; 12.5 to 150 µg/mL in assay [10]; 12.5 to 150 µg/mL in assay [11]; 3.5 to 12.5 µg/mL in assay [12]. The MIC in assay [13] and in assay [14] was 1 to 3.5 µg/mL each time.
